From ChEMBL document CHEMBL5244273, “Tuberculosis: An Overview of the Immunogenic Response, Disease Progression, and Medicinal Chemistry Efforts in the Last Decade toward the Development of Potential Drugs for Extensively Drug-Resistant Tuberculosis Strains” (J Med Chem, 2021)
≈ marks a conversion by molar mass, not a printed value.

What was measured:
Format in all cases: functional
[1] = test system: Mycobacterium tuberculosis; assay: Antimycobacterial activity against multidrug-resistant Mycobacterium tuberculosis H37Rv assessed as inhibition of bacterial growth by alamar blue assay
[2] = test system: Mycobacterium tuberculosis; assay: Antimycobacterial activity against extensively-resistant Mycobacterium tuberculosis H37Rv assessed as inhibition of bacterial growth by alamar blue assay
[3] = test system: Mycobacterium tuberculosis; assay: Antimycobacterial activity against isoniazid, rifampicin, ethambutol, pyrazinamide, streptomycin, capreomycin, amikacin, kanamycin, ofloxacin, and ethionamide resistant Mycobacterium tuberculosis clinical isolate incubated for 7 days by resazurin microtitre assay; settings: 168 h, time 7 day
[4] = test system: Mycobacterium tuberculosis; assay: Antimycobacterial activity against isoniazid resistant Mycobacterium tuberculosis clinical isolate incubated for 7 days by resazurin microtitre assay; settings: 168 h, time 7 day
[5] = test system: Mycobacterium tuberculosis; assay: Antimycobacterial activity against isoniazid, rifampicin, ethambutol, pyrazinamide, capreomycin, and ethionamide resistant Mycobacterium tuberculosis clinical isolate incubated for 7 days by resazurin microtitre assay; settings: 168 h, time 7 day
[6] = test system: Mycobacterium tuberculosis; assay: Antitubercular activity against multidrug resistant Mycobacterium tuberculosis clinical isolate 6 by resazurin microtitre assay
[7] = test system: Mycobacterium tuberculosis; assay: Antitubercular activity against multidrug resistant Mycobacterium tuberculosis clinical isolate 8 by resazurin microtitre assay
[8] = test system: Mycobacterium tuberculosis; assay: Antitubercular activity against extensively drug resistant Mycobacterium tuberculosis clinical isolate 11 by resazurin microtitre assay
[9] = test system: Mycobacterium tuberculosis; assay: Antitubercular activity against multidrug resistant Mycobacterium tuberculosis clinical isolate 3 by resazurin microtitre assay
[10] = test system: Mycobacterium tuberculosis; assay: Antitubercular activity against extensively drug resistant Mycobacterium tuberculosis KMRC 0 0203-0 0197 by resazurin microtitre assay
[11] = test system: Mycobacterium tuberculosis; assay: Antitubercular activity against multidrug resistant Mycobacterium tuberculosis clinical isolate 5 by resazurin microtitre assay
[12] = test system: Mycobacterium tuberculosis; assay: Antitubercular activity against extensively drug resistant Mycobacterium tuberculosis clinical isolate 1 by resazurin microtitre assay
[13] = test system: Mycobacterium tuberculosis; assay: Antitubercular activity against multidrug resistant Mycobacterium tuberculosis clinical isolate 1 by resazurin microtitre assay
[14] = test system: Mycobacterium tuberculosis; assay: Antitubercular activity against multidrug resistant Mycobacterium tuberculosis clinical isolate 9 by resazurin microtitre assay
[15] = test system: Mycobacterium tuberculosis; assay: Antitubercular activity against multidrug resistant Mycobacterium tuberculosis clinical isolate 11 by resazurin microtitre assay
[16] = test system: Mycobacterium tuberculosis; assay: Antitubercular activity against extensively drug resistant Mycobacterium tuberculosis clinical isolate 3 by resazurin microtitre assay
[17] = test system: Mycobacterium tuberculosis; assay: Antitubercular activity against extensively drug resistant Mycobacterium tuberculosis clinical isolate 6 by resazurin microtitre assay
[18] = test system: Mycobacterium tuberculosis; assay: Antitubercular activity against extensively drug resistant Mycobacterium tuberculosis clinical isolate 10 by resazurin microtitre assay
[19] = test system: Mycobacterium tuberculosis; assay: Antitubercular activity against extensively drug resistant Mycobacterium tuberculosis clinical isolate 8 by resazurin microtitre assay
[20] = test system: Mycobacterium tuberculosis; assay: Antitubercular activity against multidrug resistant Mycobacterium tuberculosis clinical isolate 4 by resazurin microtitre assay
[21] = test system: Mycobacterium tuberculosis; assay: Antitubercular activity against extensively drug resistant Mycobacterium tuberculosis clinical isolate 2 by resazurin microtitre assay
[22] = test system: Mycobacterium tuberculosis; assay: Antitubercular activity against extensively drug resistant Mycobacterium tuberculosis clinical isolate 9 by resazurin microtitre assay
[23] = test system: Mycobacterium tuberculosis; assay: Antitubercular activity against multidrug resistant Mycobacterium tuberculosis clinical isolate 2 by resazurin microtitre assay
[24] = test system: Mycobacterium tuberculosis; assay: Antitubercular activity against extensively drug resistant Mycobacterium tuberculosis clinical isolate 5 by resazurin microtitre assay
[25] = test system: Mycobacterium tuberculosis; assay: Antitubercular activity against extensively drug resistant Mycobacterium tuberculosis clinical isolate 7 by resazurin microtitre assay
[26] = test system: Mycobacterium tuberculosis; assay: Antitubercular activity against multidrug resistant Mycobacterium tuberculosis clinical isolate 10 by resazurin microtitre assay
[27] = test system: Mycobacterium tuberculosis; assay: Antitubercular activity against multidrug resistant Mycobacterium tuberculosis clinical isolate 7 by resazurin microtitre assay
[28] = test system: Mycobacterium tuberculosis; assay: Antitubercular activity against extensively drug resistant Mycobacterium tuberculosis clinical isolate 4 by resazurin microtitre assay
[29] = test system: Mycobacterium tuberculosis; assay: Antimycobacterial activity against isoniazid, streptomycin and ethionamide resistant Mycobacterium tuberculosis clinical isolate F
[30] = test system: Mycobacterium tuberculosis; assay: Antimycobacterial activity against isoniazid and ethionamide resistant Mycobacterium tuberculosis clinical isolate E
[31] = test system: Mycobacterium tuberculosis; assay: Antimycobacterial activity against isoniazid and ethionamide resistant Mycobacterium tuberculosis clinical isolate B
[32] = test system: Mycobacterium tuberculosis; assay: Antimycobacterial activity against isoniazid, streptomycin, rifampicin, ethambutol and ethionamide resistant Mycobacterium tuberculosis clinical isolate G
[33] = test system: Mycobacterium tuberculosis; assay: Antimycobacterial activity against isoniazid, streptomycin, rifampicin, ethambutol, ethionamide and ofloxacin resistant Mycobacterium tuberculosis clinical isolate H
[34] = test system: Mycobacterium tuberculosis; assay: Antimycobacterial activity against isoniazid, streptomycin, ethambutol and ethionamide resistant Mycobacterium tuberculosis clinical isolate A
[35] = test system: Mycobacterium tuberculosis; assay: Antimycobacterial activity against extensively drug resistant Mycobacterium tuberculosis H37Rv
[36] = test system: Mycobacterium tuberculosis; assay: Antimycobacterial activity against multidrug resistant Mycobacterium tuberculosis H37Rv
[37] = test system: Mycobacterium tuberculosis; assay: Antimycobacterial activity against isoniazid, streptomycin, and rifampicin resistant Mycobacterium tuberculosis clinical isolate C

SMILES | MIC [6] [µg/mL] | MIC [7] [µg/mL] | MIC [8] [µg/mL] | MIC [9] [µg/mL] | MIC [10] [µg/mL] | MIC [11] [µg/mL] | MIC [12] [µg/mL] | MIC [13] [µg/mL] | MIC [14] [µg/mL] | MIC [15] [µg/mL] | MIC [16] [µg/mL] | MIC [17] [µg/mL] | MIC [18] [µg/mL] | MIC [19] [µg/mL] | MIC [20] [µg/mL] | MIC [21] [µg/mL] | MIC [22] [µg/mL] | MIC [23] [µg/mL] | MIC [24] [µg/mL] | MIC [25] [µg/mL] | further results
COc1ccccc1NC(=O)c1c(Nc2cccc(C)c2)nn2c(O)cc(C)nc12 |  |  |  |  |  |  |  |  |  |  |  |  |  |  |  |  |  |  |  |  | MIC [1]: 6.25 µg/mL (≈ 15.5 µM); MIC [2]: 12.5 µg/mL (≈ 31 µM)
CC(=O)N1/C(=C/c2ccc(Br)cc2)C(=O)c2ccccc21 |  |  |  |  |  |  |  |  |  |  |  |  |  |  |  |  |  |  |  |  | MIC [3]: 15.2 µM (≈ 5.2 µg/mL); MIC [4]: 15.2 µM (≈ 5.2 µg/mL); MIC [5]: 9.15 µM (≈ 3.13 µg/mL)
CC(=O)N1/C(=C/c2ccc(-c3ccc(Cl)cc3)cc2)C(=O)c2ccccc21 |  |  |  |  |  |  |  |  |  |  |  |  |  |  |  |  |  |  |  |  | MIC [3]: 8.37 µM (≈ 3.13 µg/mL); MIC [4]: 8.37 µM (≈ 3.13 µg/mL); MIC [5]: 10.4 µM (≈ 3.89 µg/mL)
Cc1cc(O)n2nc(Nc3ccc(F)c(F)c3)c(C(=O)Nc3ccc(F)cc3)c2n1 |  |  |  |  |  |  |  |  |  |  |  |  |  |  |  |  |  |  |  |  | MIC [1]: 3.12 µg/mL (≈ 7.55 µM); MIC [2]: 25 µg/mL (≈ 60.5 µM)
CC[C@@H](CO)NCCN[C@@H](CC)CO [ETHAMBUTOL] | 6.25 (≈ 30.6 µM) | 6.25 (≈ 30.6 µM) | 6.25 (≈ 30.6 µM) | 3.13 (≈ 15.3 µM) | 6.25 (≈ 30.6 µM) | 6.25 (≈ 30.6 µM) | 6.25 (≈ 30.6 µM) | 6.25 (≈ 30.6 µM) | 3.13 (≈ 15.3 µM) | 6.25 (≈ 30.6 µM) | 6.25 (≈ 30.6 µM) | 6.25 (≈ 30.6 µM) | 6.25 (≈ 30.6 µM) | 6.25 (≈ 30.6 µM) | 6.25 (≈ 30.6 µM) | 6.25 (≈ 30.6 µM) | 6.25 (≈ 30.6 µM) | 6.25 (≈ 30.6 µM) | 6.25 (≈ 30.6 µM) | 12.5 (≈ 61.2 µM) | MIC [26]: 0.78 µg/mL (≈ 3.82 µM); MIC [27]: 6.25 µg/mL (≈ 30.6 µM); MIC [28]: 6.25 µg/mL (≈ 30.6 µM)
CCc1cc(C(N)=S)ccn1 [ETHIONAMIDE] |  |  |  |  |  |  |  |  |  |  |  |  |  |  |  |  |  |  |  |  | MIC [29]: > 80 µg/mL; MIC [30]: > 80 µg/mL; MIC [31]: > 114 µg/mL; MIC [32]: > 114 µg/mL; MIC [33]: 114 µg/mL (≈ 686 µM); MIC [34]: 114 µg/mL (≈ 686 µM)
NNC(=O)c1ccncc1 [ISONIAZID] | 25 (≈ 182 µM) | 12.5 (≈ 91.1 µM) | 6.25 (≈ 45.6 µM) | 3.13 (≈ 22.8 µM) | 25 (≈ 182 µM) | 12.5 (≈ 91.1 µM) | 12.5 (≈ 91.1 µM) | 12.5 (≈ 91.1 µM) | 25 (≈ 182 µM) | 12.5 (≈ 91.1 µM) | 3.13 (≈ 22.8 µM) | 12.5 (≈ 91.1 µM) | > 200 | 12.5 (≈ 91.1 µM) | 25 (≈ 182 µM) | 3.13 (≈ 22.8 µM) | 50 (≈ 365 µM) | 12.5 (≈ 91.1 µM) | 12.5 (≈ 91.1 µM) | 6.25 (≈ 45.6 µM) | MIC [1]: 6.25 µg/mL (≈ 45.6 µM); MIC [35]: 50 µg/mL (≈ 365 µM); MIC [2]: 50 µg/mL (≈ 365 µM); MIC [26]: 3.13 µg/mL (≈ 22.8 µM); MIC [27]: 50 µg/mL (≈ 365 µM); MIC [28]: 12.5 µg/mL (≈ 91.1 µM); MIC [36]: 6.25 µg/mL (≈ 45.6 µM)
NC(=O)c1cnccn1 [PYRAZINAMIDE] | > 200 | > 200 | > 200 | > 200 | > 200 | > 200 | > 200 | > 200 | > 200 | > 200 | > 200 | > 200 | > 200 | > 200 | > 200 | > 200 | > 200 | > 200 | > 200 | > 200 | MIC [26]: > 200 µg/mL; MIC [27]: > 200 µg/mL; MIC [28]: > 200 µg/mL
CO[C@H]1/C=C/O[C@@]2(C)Oc3c(C)c(O)c4c(O)c(c(/C=N/N5CCN(C)CC5)c(O)c4c3C2=O)NC(=O)/C(C)=C\C=C\[C@H](C)[C@H](O)[C@@H](C)[C@@H](O)[C@@H](C)[C@H](OC(C)=O)[C@@H]1C [RIFAMPIN] | > 200 | > 200 | > 200 | > 200 | 100 (≈ 122 µM) | 3.13 (≈ 3.8 µM) | > 200 | > 200 | > 200 | 3.13 (≈ 3.8 µM) | > 200 | 100 (≈ 122 µM) | 6.25 (≈ 7.59 µM) | > 200 | > 200 | > 200 | > 200 | > 200 | > 200 | > 200 | MIC [3]: > 12.2 µM; MIC [4]: 0.377 µM (≈ 0.31 µg/mL); MIC [5]: > 12.2 µM; MIC [26]: 3.13 µg/mL (≈ 3.8 µM); MIC [27]: > 200 µg/mL; MIC [28]: 6.25 µg/mL (≈ 7.59 µM)
CN[C@@H]1[C@H](O[C@H]2[C@H](O[C@H]3[C@H](O)[C@@H](O)[C@H](N=C(N)N)[C@@H](O)[C@@H]3N=C(N)N)O[C@@H](C)[C@]2(O)C=O)O[C@@H](CO)[C@H](O)[C@H]1O [STREPTOMYCIN] | 25 (≈ 43 µM) | 3.13 (≈ 5.38 µM) | 200 (≈ 344 µM) | 0.39 (≈ 0.671 µM) | 0.78 (≈ 1.34 µM) | 3.13 (≈ 5.38 µM) | 0.78 (≈ 1.34 µM) | 100 (≈ 172 µM) | 25 (≈ 43 µM) | 3.13 (≈ 5.38 µM) | > 200 | 50 (≈ 86 µM) | < 0.09 | > 200 | 0.78 (≈ 1.34 µM) | 50 (≈ 86 µM) | 200 (≈ 344 µM) | 1.56 (≈ 2.68 µM) | 50 (≈ 86 µM) | 0.78 (≈ 1.34 µM) | MIC [29]: > 16 µg/mL; MIC [30]: 16 µg/mL (≈ 27.5 µM); MIC [31]: 8 µg/mL (≈ 13.8 µM); MIC [32]: > 64 µg/mL; MIC [33]: > 64 µg/mL; MIC [34]: > 64 µg/mL; MIC [26]: > 200 µg/mL; MIC [27]: 200 µg/mL (≈ 344 µM); MIC [28]: 0.78 µg/mL (≈ 1.34 µM); MIC [37]: 32 µg/mL (≈ 55 µM)
